Assay results as given in patent EP3917907B1, “MODULATORS OF POTASSIUM ION CHANNELS AND USES THEREOF” (Universitá Degli Studi Di Salerno, priority 2019, dated 2020).

What was measured:
[1] = Solution stability (HPLC, extracellular solution, ambient temperature); assay type: physicochemical; conditions: percentage of degradation after 6 h at ambient temperature; 100 ppm in extracellular solution pH 7.4
Description: (§1) In order to study the solution stability and photostability of the potassium channel modulators object of the present invention, a stock solution of the proper analyte (1 mg/mL) in dimethylsulfoxide (DMSO) has been prepared. This solution has been then diluted to a concentration of 100 ppm using extracellular solution containing (in mM): 138 NaCl, 2 CaCl2, 5.4 KCl, 1 MgCl2, 10 glucose, and 10 HEPES, at pH 7.4, adjusted with NaOH. To measure solution stability, the diluted solutions have been maintained at ambient temperature for 6 h. To measure photostability, the diluted solutions have been irradiated for 6 h using a Oriel Sol3A Solar Simulator (Newport corporation, Irvine, CA, USA) with a 12x12 inches output beam. Aliquots of solution have been withdrawn after 6h and analyzed by HPLC using a Kinetex C18, 150 mm × 4.6 mm × 2.6 µm (Phenomenex, Bologna, Italy) as stationary phase and a mobile phase constituted by A: H2O/CH3CN (80:20) and B: CH3CN. Gradient elution has been performed from 20% to 90% of B in 7.50 minutes and from 90% to 20% of B in 1 minute. The pump flux has been set to 1.5 mL/min. Column has been thermostatted at 40°C during analysis. Results are espressed in Table 3 as percentage of degradation of the product calculated as ratio between the peak area of the analyte at time 0 (Pa0) and after 6h (Pa6) using the following formula: % degradation = (Pa0−Pa6)/Pa0 *100. [formula]

[2] = Photostability (HPLC, solar simulator irradiation); assay type: physicochemical; conditions: percentage of degradation after 6 h irradiation with solar simulator; 100 ppm in extracellular solution pH 7.4
Description: as §1

Kv7.2 = molecular target: T1, Kv7.2 (Homo sapiens, UniProt O43526); test: Whole-cell patch-clamp on CHO cells transiently expressing Kv7.2; assay type: cell-based; conditions: CHO cells, mean±SEM, >1 activating, <1 inhibiting; for Idrug/Ictl at 0 mV: ratio of ramp-evoked Kv7.2 current amplitude in presence and absence of drug at 0 mV; for Idrug/Ictl at -40 mV: ratio of ramp-evoked Kv7.2 current amplitude in presence and absence of drug at -40 mV
T1 construct: expressed in transfected cells; host or cells: CHO cells (ATCC CRL-9618), transient transfection, pcDNA3.1(+)
Description: According to the experimental protocol, these plasmids were expressed individually or in combination (in particular of Kv7.2 and Kv7.3), together with a plasmid-expressing enhanced green fluorescent protein (Clontech, Palo Alto, CA) used as a transfection marker. Total cDNA in the transfection mixture was kept at 4 µg. CHO cells were grown in 100-mm plastic Petri dishes in Dulbecco's modified Eagle's medium containing 10% fetal bovine serum, nonessential amino acids (0.1 mM), penicillin (50 U/ml), and streptomycin ([…]) in a humidified atmosphere at 37°C with 5% CO2. The cells were plated on glass coverslips coated with poly-L-lysine, and transfected one day after plating with the appropriate cDNA using Lipofectamine 2000 (Life Technologies), according to the manufacturer's protocol.
Currents from CHO cells were recorded at room temperature (20-22°C) 24 hours after trasfection using the whole-cell configuration of the patch-clamp technique, with glass micropipettes of 3-5 MΩ resistance. During the recording, constant perfusion of extracellular solution was maintained. The extracellular solution contained (in mM): 138 NaCl, 2 CaCl2, 5.4 KCl, 1 MgCl2, 10 glucose, and 10 HEPES, at pH 7.4, adjusted with NaOH. The pipette (intracellular) solution contained (in mM): 140 KCl, 2 MgCl2, 10 EGTA, 10 HEPES, 5 Mg^2+-ATP, at pH 7.3-7.4, adjusted with KOH. Currents were recorded using an Axopatch-200A amplifier, filtered at 5 kHz, and digitized using a DigiData 1440A (Molecular Devices). The pCLAMP software (version 10.2, Molecular Devices) was used for data acquisition and analysis. To evaluate the activity of exemplary compounds on Kv7.2 (see Table 1), as well as on Kv7.1, Kv7.2/7.3, Kv7.3 and Kv7.4 channels for selected compounds (see Table 2), the cells were clamped at -80 mV and currents were elicited by 3-s voltage ramps from -80 mV to +20 mV in the presence and absence of each compound. […] The effects of drugs were expressed as shift in the ramp-voltage (ΔV) calculated at 20% of the maximal current (Miceli et al, Proc Natl Acad Sci U S A. 2013, 110(11):4386-91). Curves were fitted using the following equation: y=max/(1+x/EC50)n, where x is the drug concentration, n is the Hill coefficient and max is the maximal value achieved, as previously described (Ambrosino et al, Br J Pharmacol. 2013, 168(6):1430-1444). Data analysis and fit were performed using Sigmaplot (version 12.3).
Ramp-evoked Kv7.2 currents were analyzed by measuring the currents at -40 mV (a membrane potential value close to the activation threshold) and at 0 mV (a membrane potential value at which Kv7.2 conductance is largely saturated). In particular, -40 mV represents the threshold potential for spike initiation and 0 mV represents instead the membrane potential value at which maximal conductance of the channel is achieved.
In Table 1, the effect of exemplary compounds of the invention is expressed as the ratio between current amplitude in the presence (Idrug) and absence (Ictl) of the drug at these two membrane voltages. […]

| Solution stability [1] | Photostability [2] | Idrug/Ictl at 0 mV (Kv7.2) | Idrug/Ictl at -40 mV (Kv7.2) | Structure (SMILES) |
| --- | --- | --- | --- | --- |
| A (degradation lower than 20%) | A (degradation lower than 20%) | 1.93±0.19 | 2.27±0.49 | O=S(=O)(Nc1ccc2c(ccn2Cc2ccc(C(F)(F)F)cc2)c1)C1CCCCC1 [N-(1-(4-(trifluoromethyl)benzyl)-1H-indol-5-yl)cyclohexanesulfonamide] |
| C (degradation > 40%) | C (degradation > 40%) | 2.37±0.58 | 3.2±0.20 | O=S(=O)(Nc1ccc2c(c1)CCN2Cc1ccc(C(F)(F)F)cc1)C1CCCCC1 [N-(1-(4-(trifluoromethyl)benzyl)indolin-5-yl)cyclohexanesulfonamide] |
| B (20%< degradation<40%) | C (degradation > 40%) | 3.09±0.52 | 7.27±1.32 | O=[N+]([O-])c1cc(Br)ccc1CN1CCc2cc(NS(=O)(=O)C3CCCCC3)ccc21 [N-(1-(4-bromo-2-nitrobenzyl)indolin-5-yl)cyclohexanesulfonamide] |
| A (degradation lower than 20%) | B (20%< degradation<40%) | 1.22±0.07 | 1.85±0.30 | O=C(c1ccc(F)cc1)N1CCc2cc(NS(=O)(=O)C3CCCCC3)ccc21 [N-(1-(4-fluorobenzoyl)indolin-5-yl)cyclohexanesulfonamide] |
| A (degradation lower than 20%) | A (degradation lower than 20%) | 2.76±0.19 | 4.71±1.31 | O=S(=O)(Nc1ccc2c(ccn2Cc2ccc(F)cc2)c1)C1CCCCC1 [N-(1-(4-fluorobenzyl)-1H-indol-5-yl)cyclohexanesulfonamide] |
| C (degradation > 40%) | C (degradation > 40%) | 1.93±0.32 | 2.55±0.79 | CC(C)CS(=O)(=O)Nc1ccc2c(c1)CCN2Cc1ccc(F)cc1 [N-(1-(4-fluorobenzyl)indolin-5-yl)-2-methylpropane-1-sulfonamide] |
| B (20%< degradation<40%) | B (20%< degradation<40%) | 1.87±0.22 | 1.91±0.44 | CC1CC(C)CN(S(=O)(=O)Nc2ccc3c(c2)CCN3Cc2ccc(F)cc2)C1 (stereo not shown) [N-(1-(4-fluorobenzyl)indolin-5-yl)-3,5-dimethylpiperidine-1-sulfonamide] |
| B (20%< degradation<40%) | B (20%< degradation<40%) | 0.95±0.07 | 1.25±0.19 | CN1CCN(S(=O)(=O)Nc2ccc3c(c2)CCN3Cc2ccc(F)cc2)CC1 [N-(1-(4-fluorobenzyl)indolin-5-yl)-4-methylpiperazine-1-sulfonamide] |
| A (degradation lower than 20%) | A (degradation lower than 20%) | 1.64±0.20 | 1.88±0.14 | CC(=O)Nc1ccc2c(c1)CCN2Cc1ccc(F)cc1 [N-(1-(4-fluorobenzyl)indolin-5-yl)acetamide] |
| B (20%< degradation<40%) | B (20%< degradation<40%) | 0.98±0.11 | 0.89±0.12 | O=S(=O)(Nc1ccc2c(c1)CCN2Cc1ccc(F)cc1)N1CCCCCC1 [N-(1-(4-fluorobenzyl)indolin-5-yl)azepane-1-sulfonamide] |
| A (degradation lower than 20%) | B (20%< degradation<40%) | 0.64±0.14 | 1.15±0.28 | O=S(=O)(Nc1ccc2c(c1)CCN2Cc1ccc(F)cc1)c1ccccc1 [N-(1-(4-fluorobenzyl)indolin-5-yl)benzenesulfonamide] |
| C (degradation > 40%) | C (degradation > 40%) | 1.55±0.12 | 2.03±0.19 | CCCCS(=O)(=O)Nc1ccc2c(c1)CCN2Cc1ccc(F)cc1 [N-(1-(4-fluorobenzyl)indolin-5-yl)butane-1-sulfonamide] |
| A (degradation lower than 20%) | B (20%< degradation<40%) | 0.66±0.07 | 1.32±0.21 | O=C(Nc1ccc2c(c1)CCN2Cc1ccc(F)cc1)C1CCCCC1 [N-(1-(4-fluorobenzyl)indolin-5-yl)cyclohexanecarboxamide] |
| B (20%< degradation<40%) | C (degradation > 40%) | 2.18±0.09 | 2.48±0.20 | CCCCCCS(=O)(=O)Nc1ccc2c(c1)CCN2Cc1ccc(F)cc1 [N-(1-(4-fluorobenzyl)indolin-5-yl)hexane-1-sulfonamide] |
| C (degradation > 40%) | C (degradation > 40%) | 1.37±0.17 | 3.24±1.52 | O=S(=O)(Nc1ccc2c(c1)CCN2CCc1ccc(F)cc1)C1CCCCC1 [N-(1-(4-fluorophenethyl)indolin-5-yl)cyclohexanesulfonamide] |
| A (degradation lower than 20%) | A (degradation lower than 20%) | 1.63±0.06 | 2.00±0.36 | COc1ccc(Cn2ccc3cc(NS(=O)(=O)C4CCCCC4)ccc32)cc1 [N-(1-(4-methoxybenzyl)-1H-indol-5-yl)cyclohexanesulfonamide] |
| B (20%< degradation<40%) | C (degradation > 40%) | 0.92±0.13 | 1.13±0.15 | COc1ccc(CN2c3ccc(NS(=O)(=O)C4CCCCC4)cc3CC2C)cc1 (stereo not shown) [N-(1-(4-methoxybenzyl)-2-methylindolin-5-yl)cyclohexanesulfonamide] |
| C (degradation > 40%) | C (degradation > 40%) | 4.24±0.83 | 6.43±1.51 | COc1ccc(CN2CCc3cc(NS(=O)(=O)C4CCCCC4)ccc32)cc1 [N-(1-(4-methoxybenzyl)indolin-5-yl)cyclohexanesulfonamide] |
| A (degradation lower than 20%) | A (degradation lower than 20%) | 1.94±0.12 | 5.76±1.28 | CCCCCCC(=O)Nc1ccc(NCc2ccc(C(F)(F)F)cc2)c(F)c1N [N-(2-amino-3-fluoro-4-((4-(trifluoromethyl)benzyl)amino)phenyl)heptanamide] |
